This data set can be described thus: RP, Agilent ZORBAX Eclipse Plus C18, 50 × 4.6 mm, 1.8 µm, 0.5 mL/min, estimated dead time 1.1 min; A: water + 0.1% formic acid; B: acetonitrile + 0.1% formic acid; gradient (min/%B) 0/10 3/10 25/100 28/100. The settings on record: stereoisomer not certain.

This is an account of results in the RepoRT retention time repository (doi:10.1016/j.chroma.2014.05.003).

`Nc1nc(N)nc(NC2CC2)n1`: the LC retention time is 1.36 min.
To `CC(C)N1C(=O)c2ccccc2NS1(=O)=O` belongs 12.7 min; to `CNC(=O)N(C)c1nnc(C(C)(C)C)s1`, 9.87 min; to `CCC(C)(CC)c1cc(NC(=O)c2c(OC)cccc2OC)on1`, 16.5 min.
For the molecule `O=NN1CCOCC1`, the LC retention time is 2.21 min.
For `Cn1cnc2c1c(=O)[nH]c(=O)n2C` the value was 1.96 min; for `CCn1cc(C(=O)O)c(=O)c2cc3c(cc21)OCO3`, 9.71 min.
Take `CN1C2CCC1C(C(=O)O)C(OC(=O)c1ccccc1)C2` (stereo not drawn): the LC retention time is 6.61 min.
As to `CN(C)c1ccc(C(c2ccccc2)c2ccc(N(C)C)cc2)cc1`, the LC retention time is 12.6 min.
`CCOP(=O)(NC(C)C)Oc1ccc(SC)c(C)c1` (stereo not drawn): the LC retention time is 15.4 min.
To `CNC(=O)ON=C(C)C(C)S(C)(=O)=O` (stereo not drawn) belongs 4.36 min; to `c1ccc(Nc2ccccc2)cc1`, 17.2 min.
For `CN(C)c1nc(=O)n(C2CCCCC2)c(=O)n1C` the value was 10.1 min; for `O=C(NN=Cc1ccc([N+](=O)[O-])o1)c1ccc(O)cc1`, 9.51 min; for `CCOC(=O)CC(SP(=S)(OC)OC)C(=O)OCC` (stereo not drawn), 17 min.
Regarding `CC(C)(C)NCC(O)COc1nsnc1N1CCOCC1` (stereo not drawn), the LC retention time was 6.87 min.
For `NC(N)=Nc1nc(CSCCC(N)=NS(N)(=O)=O)cs1` the value was 1.81 min.
Consider `COCCOc1ccccc1S(=O)(=O)NC(=O)Nc1nc(OC)nc(OC)n1`, for which the LC retention time is 11.9 min.
To `COC(=O)NS(=O)(=O)c1ccc(N)cc1` belongs 5.43 min; to `CCOC(=O)CC(SP(=O)(OC)OC)C(=O)OCC` (stereo not drawn), 11.8 min; to `Cn1c(=O)c2[nH]cnc2n(C)c1=O`, 2.8 min.
Turning to `CCOC(=O)C1CC(=O)C(=C(O)C2CC2)C(=O)C1` (stereo not drawn), the LC retention time was 14.2 min.
`CNC(C)Cc1ccc2c(c1)OCO2` (stereo not drawn): the LC retention time was 5.39 min.
Consider `CN(C)CCOC(c1ccccc1)c1ccccc1`, for which the LC retention time is 9.81 min.
Turning to `CNc1nc(NC(C)C)nc(SC)n1`, the LC retention time was 8.8 min.
As to `CCC1OC(=O)C(C)C(OC2CC(C)(OC)C(O)C(C)O2)C(C)C(OC2OC(C)CC(N(C)C)C2O)C(C)(O)CC(C)C(=NOCOCCOC)C(C)C(O)C1(C)O` (stereo not drawn), the LC retention time is 11.3 min.
`COc1ccc(-c2ccccc2)cc1NNC(=O)OC(C)C`: the LC retention time was 16.6 min.
On to `CNC(=O)ON=CC(C)(C)S(C)=O` (stereo not drawn), for which the LC retention time is 2.7 min.
For `CSc1nc(NC2CC2)nc(NC(C)(C)C)n1`, the LC retention time is 12.6 min.
For `Nc1ccc(-c2ccc(N)cc2)cc1`, the LC retention time is 1.36 min.
Consider `CCCCCCCCCCCCCC[N+](C)(C)Cc1ccccc1`, for which the LC retention time was 18.4 min.
As for `CC(C)Cc1ccc(C(C)C(=O)O)cc1` (stereo not drawn), the LC retention time was 16.6 min.
With `CCC1CCCC(OC2CCC(N(C)C)C(C)O2)C(C)C(=O)C2=CC3C(C=C(C)C4CC(OC5OC(C)C(OC)C(OC)C5OC)CC43)C2CC(=O)O1` (stereo not drawn), the LC retention time is 14.2 min.
To `Oc1ccccc1-c1ccccc1` belongs 16.3 min.
`CNCC(O)c1cccc(O)c1` (stereo not drawn): the LC retention time was 1.36 min.
Regarding `Cn1c(=O)[nH]c(=O)c2[nH]cnc21`, the LC retention time is 1.47 min.
As for `COP(N)(=O)SC` (stereo not drawn), the LC retention time is 1.61 min.
With `CON=C(C(=O)OC)c1ccccc1COc1ccccc1C`, the LC retention time is 18 min.
On to `CCC(C)C(=O)OC1CC(O)C=C2C=CC(C)C(CCC(O)CC(O)CC(=O)O)C21` (stereo not drawn), for which the LC retention time was 10.7 min.
For `CCC1OC(=O)C(C)C(OC2CC(C)(OC)C(O)C(C)O2)C(C)C(OC2OC(C)CC(N(C)C)C2O)C(C)(O)CC(C)C(=O)C(C)C(O)C1(C)O` (stereo not drawn) the value was 9.73 min; for `Cc1ccnc(NS(=O)(=O)c2ccc(N)cc2)n1`, 5.73 min; for `CCCCN(CCCC)N=O`, 15.9 min.
Regarding `CN(C(=O)COc1nc2ccccc2s1)c1ccccc1`, the LC retention time was 16 min.
To `Cc1ccc(C)c(OCCCC(C)(C)C(=O)O)c1` belongs 18.1 min; to `CC(C)(C)NCC(O)c1ccc(O)c(CO)c1` (stereo not drawn), 1.63 min; to `CCCCCc1cc(O)c2c(c1)OC(C)(C)C1CCC(C(=O)O)=CC21` (stereo not drawn), 19.1 min.
In the case of `CCOc1ccc(NC(=O)OC(C)C)cc1OCC`, the LC retention time is 15.3 min.
Consider `CCC(C)C1OC2(C=CC1C)CC1CC(CC=C(C)C(OC3CC(OC)C(OC4CC(OC)C(NC(C)=O)C(C)O4)C(C)O3)C(C)C=CC=C3COC4C(O)C(C)=CC(C(=O)O1)C34O)O2` (stereo not drawn), for which the LC retention time was 21.2 min.
For the molecule `COc1cccc(C(=O)NN(C(=O)c2cc(C)cc(C)c2)C(C)(C)C)c1C`, the LC retention time is 16.6 min.
Turning to `Cc1cc(C2CC2)nc(Nc2ccccc2)n1`, the LC retention time is 14.3 min.
Regarding `CCOP(=O)(OCC)OCC`, the LC retention time is 9.03 min.
To `Nc1ccc(S(=O)(=O)Nc2ncccn2)cc1` belongs 4.16 min; to `CNC(=O)Oc1cccc2c1OC(C)(C)C2O` (stereo not drawn), 7.87 min.
On to `COC(=O)Nc1nc2ccccc2[nH]1`, for which the LC retention time is 3.27 min.
Take `COC(=O)NN=Cc1c[n+]([O-])c2ccccc2[n+]1[O-]`: the LC retention time was 6.32 min.
As to `CC(C)(C)C(O)C(Oc1ccc(-c2ccccc2)cc1)n1cncn1` (stereo not drawn), the LC retention time was 16.6 min.
As to `CC(C(=O)O)c1cccc(C(=O)c2ccccc2)c1` (stereo not drawn), the LC retention time was 13.7 min.
As for `COC(=O)Nc1nc2ccc(C(=O)c3ccccc3)cc2[nH]1`, the LC retention time is 10.7 min.
To `CNC(=O)Oc1ccccc1C(C)C` belongs 13.6 min; to `CCC1OC(=O)C(C)C(OC2CC(C)(OC)C(O)C(C)O2)C(C)C(OC2OC(C)CC(N(C)C)C2O)C(C)(OC)CC(C)C(=O)C(C)C(O)C1(C)O` (stereo not drawn), 11.1 min.
For `CCCCCCCCCCCCCCCC[N+](C)(C)Cc1ccccc1` the value was 20.6 min; for `CCOP(=O)(Sc1ccccc1)Sc1ccccc1`, 17.6 min; for `CC(C)(c1ccc(O)cc1)c1ccc(O)cc1`, 13.1 min.
To `CN1CCCC1c1cccnc1` (stereo not drawn) belongs 1.36 min; to `COc1ccc2c3c1OC1C(O)C=CC4C(C2)N(C)CCC341` (stereo not drawn), 3.16 min.
On to `CC(C)c1ccc(NC(=O)N(C)C)cc1`, for which the LC retention time is 12.9 min.
With `COC(=O)c1ccccc1S(=O)(=O)NC(=O)Nc1nc(C)cc(C)n1`, the LC retention time is 12.2 min.
To `Cc1ncc([N+](=O)[O-])n1CCO` belongs 2.77 min; to `CC(C)NCC(O)COc1cccc2ccccc12` (stereo not drawn), 9.19 min.
Regarding `CCOc1ccc(NC(C)=O)cc1`, the LC retention time is 9.38 min.
Take `CC1=NNC(=O)N(N=Cc2cccnc2)C1`: the LC retention time was 1.4 min.
For the molecule `Cc1ccc(NS(=O)(=O)N(C)C)cc1`, the LC retention time is 12.9 min.
For `CCNc1nc(NC(C)(C)C)nc(SC)n1`, the LC retention time is 18.3 min.
